Measured values from patent publication US10456465B2, “Compositions, kits, and methods for the diagnosis prognosis, monitoring, treatment and modulation of post-transplant lymphoproliferative disorders and hypoxia associated angiogenesis disorders using galectin-1” (Dana-Farber Cancer Institute, Inc., priority 2009, dated 2019).
Blank lines part the entries; values can stand above or below the compound they belong to.

Experiments:
Gal1 = target: T1, Gal1 (Homo sapiens, UniProt P09382); assay: Binding of 488-Gal1 to HUVEC; settings: lactose/sucrose 30 mM, swainsonine 3 μM, benzyl-α-GalNAc 2 mM, mAb 0.5 μM
T1 construct: made in house
Procedure: For glycophenotyping, ECs were incubated with biotinylated L-PHA, LEL, SNA, MAL II, PNA and HPA (all from Vector). Recombinant Gal1 was purified as described in Ilarregui et al. (2009) Nat Immunol 10, 981-991. For binding assays, ECs were incubated for 1 h at 4° C. with dyLight 488-labeled galectins in the absence or presence of lactose, sucrose, anti-Gal1 or isotype control mAb or following transfection with GnT5, GCNT1 or scrambled siRNA. Cells were analyzed on a FACSAria (BD Biosciences). For segregation, ECs were treated with Gal1 for 1 h, fixed and incubated for 1 h with anti-human VEGFR2 antibody (55B11; Cell Signaling) as described in Ilarregui et al. (2009) Nat Immunol 10, 981-991. Cells were analyzed on a Nikon laser confocal microscope (Eclipse E800).
DyLight 488-conjugated Gal1 (488-Gal1) was obtained using DyLight labeling kit (Thermo Scientific). Inhibitors of Jak2-STAT3 (AG490; 5 μM), Jnk-SAP (SP600125; 20 μM), p38 (SB202190; 10 μM), HIF-1α (3 μM) and O-glycosylation (benzyl-α-Ga1NAc; 2 mM) were from Calbiochem. Inhibitors of Erk1/2 (U0126; 5 μM), PI(3)K-Akt (Ly294002; 2 μM) and NF-κB (BAY 11-7082; 1 μM), ROS (N-acetyl-cysteine; NAC), N-glycosylation (swainsonine; 3 μM), lactose or sucrose (30 mM) were from Sigma. PNGase F (25 U/μg protein) was from New England Biolabs. Recombinant cytokines including IL-10 (50 ng/ml), IL-17 (5 ng/ml), TGF-β1 (3 ng/ml), IFN-γ (50 ng/ml), VEGF (20 ng/ml), bFGF (10 ng/ml) were from R&D. TNF (20 ng/ml) was from Sigma. Biotinylated lectins, including L-PHA (2 μg/ml), LEL (1 μg/ml), SNA (5 μg/ml), MAL II (10 μg/ml), PNA (10 μg/ml) and HPA (10 μg/ml) were purchased from Vector Labs and incubated in buffer containing 150 mM NaCl, 10 mM HEPES and 1% BSA (Sigma). ON-TARGETplus SMART siRNA pools against GnT5, GCNT1, VEGFR2, NRP-1, VEGF, HIF-1α and scrambled were obtained from Dharmacon. Transfections were performed by Lipofectamine-RNAiMAX (Invitrogen) following manufacturer's directions. Recombinant Gal3 and Gal8 were purified as described in Acosta-Rodriguez et al. (2004) J Immunol 172, 493-502 and Cardenas Delgado et al. (2010) FASEB J [Epub ahead of print].

KS cells = assay: Gal1 expression and secretion by KS cells (hypoxia/normoxia); assay type: cell-based, human; settings: for IκB-α degradation: hypoxia; for hypoxia-driven Gal1 expression and secretion: hypoxia (1% O2)
HUVEC [1] = assay: HUVEC capillary tube formation on Matrigel; assay type: cell-based, human; settings: induced by Gal1
Procedure: (§1) HUVEC transfected or not with specific siRNA or pre-incubated with signaling pathway inhibitors were exposed to VEGF or Gal1 with or without lactose, sucrose, 8F4F8G7 mAb or control isotype (IgG1κ) or specific antibodies for VEGFR1 (AP-MAB0702; Abcam), VEGFR2 (AF357; R&D), VEGFR3 (AB89501; Abcam) or VEGF (MAB293; R&D). Cells were processed for proliferation, migration, invasion and tube formation assays. Tumor-associated blood vessels were identified by flow cytometry using Alexa Fluor 647-conjugated anti-CD34 antibody (RAM34; eBioscience).
(§2) The formation of capillary-like tubular structures was assessed in Matrigel-coated plates essentially as described in Albini et al. (2001), Cancer Res 61, 8171-8178. In brief, HUVEC (3×10^4 cells/ml) transfected or not with specific siRNA or pre-incubated with signaling pathway inhibitors were seeded on Matrigel with our without Gal1 (0.1 to 3 μM) or VEGF (20 ng/ml) with or without lactose, sucrose, 8F4F8G7 mAb (0.5 μM) or isotype control (IgG1K) or blocking antibodies specific for VEGFR1 (5 μg/ml), VEGFR2 (2 μg/ml), VEGFR3 (10 μg/ml) or VEGF (10 μg/ml). Cells were incubated at 37° C. for periods ranging from 0 to 24 h and were visualized by phase-contrast microscopy. In another set of experiments, conditioned medium from hypoxic or normoxic KS cells infected or not with a retroviral vector containing Gal1 shRNA was assessed on HUVEC transfected or not with GnT5, GCNT1 or scr siRNA (100 nM). Capillary-like tubular structures were scored by counting the number of tubules (closed areas) per well in a phase-contrast microscope (Nikon E-100). For migration assays, HUVEC (4×10^4/well) transfected or not with specific siRNA were resuspended in M199 medium supplemented with 1% FCS. Cells were placed into the top chamber of the insert while the bottom well was filled with Gal1 or VEGF in the absence or presence of lactose, sucrose, 8F4F8G7 mAb or isotype control. After 24 hours, inserts were stained with crystal violet (Sigma) and analyzed in an inverted microscope. For each filter, 4 images were collected and cells were counted with the ImageJ software v1.34 (NIH).

mice (Matrigel plugs) = assay: In vivo vascularization of Matrigel sponges; parameters: species or system mouse; settings: lactose 30 mM
Procedure: Invasion assays were performed using the BioCoat Angiogenesis system (BD Biosciences) following manufacturer's recommendations. For assessment of in vivo angiogenesis, growth factor-reduced Matrigel (BD Biosciences) was mixed with Gal1 (0.1 or 3 μM) with or without lactose (30 mM). In another set of experiments, serum-free CM from KS cells infected or not with a retroviral vector expressing Gal1 shRNA and cultured under hypoxic or normoxic conditions, were added to unpolymerized Matrigel and injected subcutaneously into the flanks of either wild-type or Lgals1^−/− (B6) mice or nude mice using a cold syringe. Matrigel embedded with buffer alone was used as negative control and a cocktail containing VEGF (50 ng/ml), heparin (50 U/ml) and TNF (2 ng/ml) was used as positive control. After 6 days, Matrigel plugs were collected by surgery, photographed and weighed. Samples were minced and diluted in water to measure hemoglobin content using the Drabkin reagent kit (Sigma). Each sample was normalized to 100 mg of recovered gel and confronted with a standard curve of mouse blood hemoglobin.

HUVEC [2] = assay: HUVEC proliferation ([3H]thymidine incorporation); assay type: cell-based, human; settings: induced by Gal1
Procedure: as §1
For proliferation assays, HUVEC that were transfected or not with specific siRNA and cultured in complete M199 medium were trypsinized, harvested and seeded in 96-well microtiter plates (1×10^3 cells/well). Cells were pre-incubated for 1 hour at 37° C. with lactose, sucrose or signaling pathway inhibitors and then exposed to Gal1. After 24 hours, cells were incubated for an additional 24 hours in the presence of 0.8 μCi [^3H]-thymidine (NEN Dupont). Cells were then harvested and radioactivity was measured in a 1414 Liquid Scintillation Counter (Perkin Elmer).

HUVEC [3] = assay: HUVEC migration (transwell); assay type: cell-based, human; settings: induced by Gal1
Procedure: as §1, §2

T1 sequence (P09382 whole entry): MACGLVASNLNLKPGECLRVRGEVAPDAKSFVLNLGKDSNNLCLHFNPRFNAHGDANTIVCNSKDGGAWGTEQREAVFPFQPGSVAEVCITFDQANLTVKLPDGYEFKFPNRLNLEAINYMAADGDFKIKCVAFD

effect on binding of Gal1 to ECs (Gal1): only partially inhibitory
SMILES: CC(=O)N[C@H]1[C@@H](OCc2ccccc2)O[C@H](CO)[C@H](O)[C@@H]1O [benzyl-α-Ga1NAc]

SMILES: OO [H2O2]
secretion of Gal1 (KS cells; KS cells, exogenous administration): stimulated

SMILES: CC(=O)N[C@@H](CS)C(=O)O [N-acetyl-cysteine]
IκB-α degradation (KS cells; KS cells): prevented
hypoxia-driven Gal1 expression and secretion (KS cells; KS cells): strongly inhibited

SMILES: [Cl-].[Cl-].[Co+2] [CoCl2]
Gal1 expression (KS cells): no effect

SMILES: Cc1ccc(S(=O)(=O)/C=C/C#N)cc1 [BAY-117802]
IκB-α degradation (KS cells; KS cells): prevented
hypoxia-driven Gal1 expression and secretion (KS cells; KS cells): completely eliminated

effect on binding of Gal1 to ECs (Gal1): prevented
SMILES: OC[C@H]1O[C@@H](O[C@H]2[C@H](O)[C@@H](O)C(O)O[C@@H]2CO)[C@H](O)[C@@H](O)[C@H]1O (some centres unmarked) [lactose, reference compound]
effect on Gal1-induced capillary tube formation (HUVEC [1]): completely prevented
effect on Gal1-induced vascularization of Matrigel sponges (mice (Matrigel plugs)): specifically inhibited
effect on Gal1-induced EC proliferation (HUVEC [2]): completely prevented
effect on Gal1-induced EC migration (HUVEC [3]): completely prevented

SMILES: O[C@H]1[C@H]2[C@H](O)CCCN2C[C@H]1O [swainsonine]
effect on binding of Gal1 to ECs (Gal1): almost completely abrogated

effect on binding of Gal1 to ECs (Gal1): not
SMILES: OC[C@H]1O[C@@](CO)(O[C@H]2O[C@H](CO)[C@@H](O)[C@H](O)[C@H]2O)[C@@H](O)[C@@H]1O [sucrose]
